In patent publication US9085806B2, “Methods for treating infection involving identification of a carbapanemase gene” (priority 2007, dated 2015) one finds MIC data, which are given here for 1 compound.

The subject of one experiment is E. coli ATCC 25922 (Strain ID 300960). Kind of experiment: Antimicrobial susceptibility testing, broth microdilution (CLSI). The experiment is classed as cell-based. As to conditions: Escherichia coli, ATCC25922; Strain ID 300960 ESCCOL, wild-type negative control; Mueller-Hinton broth; read-out: minimum inhibition concentration (MIC). From the text:
(§1) Carbapenem-resistant Klebsiella and E. coli were identified by broth microdilution as described by CLSI from the BD ID/AST microbial bank (1). Wild-type (Ampicillin sensitive) E. coli ATCC 25922 (Strain ID 300960) was used through out the experiments as a negative control. Three strains previously determined to contain KPC-1, KPC-2, and KPC-3 (Strain ID 301916=KPC-1, 301917=KPC-2, 301918=KPC-3) were used as positive controls (4). […] ESBL positive strains were identified using the CLSI recommended broth microdilution assay (2). Prior to any processing or extraction, all strains were streaked out on Trypticase Soy Agar (TSA) plates containing 5% Sheep red blood cells (BD Diagnostic Systems, Sparks, Md.) and grown at 35° C. overnight.
(§2) Antimicrobial susceptibility testing was performed using Mueller-Hinton broth (BD Diagnostic Systems, Sparks, Md.) as described by CLSI (1). Antimicrobial powders were acquired from the following companies; Ampicillin (Amp) and Cefotaxime (CTX) (Sigma Chemical Co., St. Louis, Mo.), Ceftazidime (CAZ) (Eli Lilly, Indianapolis, Ind.), Clavulanic acid (Smith-Kline, King of Prussia, Pa.), Imipenem (IPM) (Merck & Co., Rahway, N.J.).
(§3) The BD ID/AST Microbial Bank was screened for carbapenem-resistant Klebsiella and E. coli with broth microdilution as described by CLSI (2). Klebsiella spp. and E. coli were chosen because they are the primary reservoir species for the plasmid-borne KPC gene.
(§4) ESBL positive strains were identified using the CLSI recommended broth microdilution assay (2). Briefly, this broth microdilution assay has a two-fold dilution scheme between a defined range of the antimicrobial agent. For example, where the defined range of the antimicrobial agent is […], the two-fold dilution between wells is represented by 0.25, 0.5, 1, 2, 4, 8, and 16 μg/ml. To identify ESBL positive strains, growth is evaluated in wells containing the antimicrobial agent of interest at these various two-fold dilutions across the defined range either alone or in combination with Clavulanic acid in order to determine the MIC for the antimicrobial agent alone or in combination with Clavulanic acid. […] A wild-type E. coli Strain ID 300960 was also screened and used as a negative control for all of the real-time assays.
On the technique in general: Broth dilution looks for growth in wells or tubes with falling amounts of substance.
As to `CC(C)(O/N=C(\C(=O)N[C@@H]1C(=O)N2C(C(=O)[O-])=C(C[n+]3ccccc3)CS[C@H]12)c1csc(N)n1)C(=O)O` [CAZ, Ceftazidime], the MIC was no more than 0.5 µg/mL.

The next experiment deals with E. coli Strain ID 301888. The experiment is described as above. The experiment is classed as cell-based. As to conditions: Escherichia coli; Strain ID 301888 ESCCOL, ESBL positive; Mueller-Hinton broth; read-out: minimum inhibition concentration (MIC).
Description: as §1, §2, §3, §4
For the compound `CC(C)(O/N=C(\C(=O)N[C@@H]1C(=O)N2C(C(=O)[O-])=C(C[n+]3ccccc3)CS[C@H]12)c1csc(N)n1)C(=O)O` [CAZ, Ceftazidime], the MIC worked out at 64 µg/mL.

The subject of another experiment is E. coli Strain ID 301892. The experiment is described as above. Conditions: Escherichia coli; Strain ID 301892 ESCCOL, ESBL positive; Mueller-Hinton broth; read-out: minimum inhibition concentration (MIC). The experiment is classed as cell-based.
Description: as §1, §2, §3, §4
With `CC(C)(O/N=C(\C(=O)N[C@@H]1C(=O)N2C(C(=O)[O-])=C(C[n+]3ccccc3)CS[C@H]12)c1csc(N)n1)C(=O)O` [CAZ, Ceftazidime], the MIC was determined as 64 µg/mL.

The test system of a further experiment is E. coli Strain ID 301894. Described as above. The experiment is classed as cell-based. Conditions: Escherichia coli; Strain ID 301894 ESCCOL, ESBL positive; Mueller-Hinton broth; read-out: minimum inhibition concentration (MIC).
Description: as §1, §2, §3, §4
`CC(C)(O/N=C(\C(=O)N[C@@H]1C(=O)N2C(C(=O)[O-])=C(C[n+]3ccccc3)CS[C@H]12)c1csc(N)n1)C(=O)O` [CAZ, Ceftazidime]: the MIC was greater than 128 µg/mL.

The next experiment deals with E. coli Strain ID 301896. The experiment is described as above. The experiment is classed as cell-based. Conditions: Escherichia coli; Strain ID 301896 ESCCOL, ESBL positive; Mueller-Hinton broth; read-out: minimum inhibition concentration (MIC).
Description: as §1, §2, §3, §4
For `CC(C)(O/N=C(\C(=O)N[C@@H]1C(=O)N2C(C(=O)[O-])=C(C[n+]3ccccc3)CS[C@H]12)c1csc(N)n1)C(=O)O` [CAZ, Ceftazidime], the MIC is greater than 128 µg/mL.

The subject of another experiment is E. coli Strain ID 301905. The description is as above. Conditions: Escherichia coli; Strain ID 301905 ESCCOL; Mueller-Hinton broth; read-out: minimum inhibition concentration (MIC). The experiment is classed as cell-based.
Description: as §1, §2, §3, §4
With `CC(C)(O/N=C(\C(=O)N[C@@H]1C(=O)N2C(C(=O)[O-])=C(C[n+]3ccccc3)CS[C@H]12)c1csc(N)n1)C(=O)O` [CAZ, Ceftazidime], the MIC was found to be 32 µg/mL.

For the next experiment, the system named is E. coli Strain ID 301918 (KPC-3). Described as above. The experiment is classed as cell-based. Conditions: Escherichia coli; Strain ID 301918 ESCCOL, KPC-3 positive control; Mueller-Hinton broth; read-out: minimum inhibition concentration (MIC).
Description: as §1, §2, §3, §4
On to `CC(C)(O/N=C(\C(=O)N[C@@H]1C(=O)N2C(C(=O)[O-])=C(C[n+]3ccccc3)CS[C@H]12)c1csc(N)n1)C(=O)O` [CAZ, Ceftazidime], for which the MIC is greater than 128 µg/mL.

The next experiment concerns E. coli Strain ID 301921. The experiment is described as above. The experiment is classed as cell-based. Conditions: Escherichia coli; Strain ID 301921 ESCCOL, ESBL positive; Mueller-Hinton broth; read-out: minimum inhibition concentration (MIC).
Description: as §1, §2, §3, §4
Consider `CC(C)(O/N=C(\C(=O)N[C@@H]1C(=O)N2C(C(=O)[O-])=C(C[n+]3ccccc3)CS[C@H]12)c1csc(N)n1)C(=O)O` [CAZ, Ceftazidime], for which the MIC is 32 µg/mL.

A further experiment deals with E. coli Strain ID 301922. The experiment is described as above. The experiment is classed as cell-based. As to conditions: Escherichia coli; Strain ID 301922 ESCCOL, ESBL positive; Mueller-Hinton broth; read-out: minimum inhibition concentration (MIC).
Description: as §1, §2, §3, §4
As to `CC(C)(O/N=C(\C(=O)N[C@@H]1C(=O)N2C(C(=O)[O-])=C(C[n+]3ccccc3)CS[C@H]12)c1csc(N)n1)C(=O)O` [CAZ, Ceftazidime], the MIC is 16 µg/mL.

Another experiment deals with E. coli Strain ID 303364. The description is as above. The experiment is classed as cell-based. As to conditions: Escherichia coli; Strain ID 303364 ESCCOL; Mueller-Hinton broth; read-out: minimum inhibition concentration (MIC).
Description: as §1, §2, §3, §4
Consider `CC(C)(O/N=C(\C(=O)N[C@@H]1C(=O)N2C(C(=O)[O-])=C(C[n+]3ccccc3)CS[C@H]12)c1csc(N)n1)C(=O)O` [CAZ, Ceftazidime], for which the MIC is 128 µg/mL.

Another experiment has as its system E. coli Strain ID 303365. Described as above. The experiment is classed as cell-based. As to conditions: Escherichia coli; Strain ID 303365 ESCCOL, ESBL positive; Mueller-Hinton broth; read-out: minimum inhibition concentration (MIC).
Description: as §1, §2, §3, §4
Consider `CC(C)(O/N=C(\C(=O)N[C@@H]1C(=O)N2C(C(=O)[O-])=C(C[n+]3ccccc3)CS[C@H]12)c1csc(N)n1)C(=O)O` [CAZ, Ceftazidime], for which the MIC is greater than 128 µg/mL.

Another experiment deals with E. coli Strain ID 303369. Described as above. The experiment is classed as cell-based. Conditions: Escherichia coli; Strain ID 303369 ESCCOL; Mueller-Hinton broth; read-out: minimum inhibition concentration (MIC).
Description: as §1, §2, §3, §4
Regarding `CC(C)(O/N=C(\C(=O)N[C@@H]1C(=O)N2C(C(=O)[O-])=C(C[n+]3ccccc3)CS[C@H]12)c1csc(N)n1)C(=O)O` [CAZ, Ceftazidime], the MIC was 64 µg/mL.
